# Assay results taken from US9221791B2, “Metalloenzyme inhibitor compounds” (Viamet Pharmaceuticals, Inc., priority 2011, dated 2015).
# Key:
# C. albicans = test: Minimum Inhibitory Concentration (MIC) (C. albicans), CLSI M27-A2; type: cell-based; details: Candida albicans; approximately 48 h at 35±1° C.; about 50% growth reduction
# Experimental: A. Minimum Inhibitory Concentration (MIC) (C. albicans) Compounds of the present disclosure were assessed for their ability to inhibit the growth of common strains of fungus, C. albicans using a standardized procedure (CLSI M27-A2). Stock solutions of the test compounds and standards were prepared in DMSO at 1,600 μg/mL (C. albicans). Eleven, serial, one-half dilutions of compounds were prepared in 96-well plates in RPMI+MOPS. The assay concentration ranges were 8-0.001 μg/mL (C. albicans). Cell suspensions of C. albicans were prepared and added to each well at concentrations of approximately 3.7×10^3 colony-forming-units per milliliter (cfu/mL). All testing was in duplicate. The inoculated plates were incubated for approximately 48 h at 35±1° C. At the completion of incubation the wells of each plate were evaluated visually for the presence of fungal growth. […] For QC purposes C. krusei isolate ATCC 6258 (4.0×10^3 cfu/mL) was included in the VOR assay.
# [1] = system: Septoria tritici (ATCC 26517); test: Minimum Inhibitory Concentration (MIC) (Septoria tritici), CLSI-based microdilution; type: cell-based; details: Zymoseptoria tritici, ATCC26517, 168 h, S. tritici ATCC 26517; 22° C. for seven days; 50% reduction in growth; read-out: Septoria Rating (MIC)
# Outline: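 S. tritici (ATCC 26517) tested by CLSI-style broth microdilution for filamentous fungi in RPMI-1640/MOPS, 2-fold series 16–0.016 μg/mL (11 concentrations, 2% DMSO before inoculum), duplicate rows. Inoculum ~5×10^4 cfu/mL; plates incubated 7 days at 22 °C in the dark, static; growth scored on a rating scale.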
# [2] = system: Puccinia recondita tritici = Puccinia triticina; test: Fungicidal activity vs. leaf rust on wheat plants; type: in vivo; details: wheat (variety Yuma) sprayed at 50 ppm, inoculated on the following day, evaluated 7-9 days later; read-out: Puccinia Rating (% Disease Control @ 50 ppm)
# Text: D. Evaluation of Fungicidal Activity Vs. Leaf Rust (Causal Agent Puccinia recondita tritici=Puccinia triticina; Bayer Code PUCCRT). […] Each pot contained 3-8 seedlings. These plants were sprayed until wet with the formulated test compounds. The compounds were formulated at 50 ppm in 10 vol. % acetone plus 90 vol. % Triton X water (deionized water 99.99 wt %+0.01 wt % Triton X100), giving a “formulated test compound.” Formulated test compounds were applied to plants using a turn table sprayer fitted with two opposing air atomization nozzles which delivered approximately 1500 L/ha of spray volume. On the following day, the leaves were inoculated with an aqueous spore suspension of Puccinia recondita tritici and the plants were kept in high humidity overnight to permit spores to germinate and infect the leaf. The plants were then transferred to a greenhouse until disease developed on untreated control plants. Disease severity was evaluated 7-9 days later, depending on the speed of disease development. In each case of Table 3, the Puccinia rating scale is as follows: […]
SMILES,MIC (C. albicans) [µg/mL],MIC [1] [µg/mL],pest or weed control at 50 ppm [2] [%]
"CCOC(=O)/C=C/c1ccc(C(F)(F)C(O)(Cn2cnnn2)c2ccc(F)cc2F)nc1 (stereo not drawn) [Compound 4, (E)-Ethyl 3-(6-(2-(2,4-difluorophenyl)-1,1-difluoro-2-hydroxy-3-(1H-tetrazol-1-yl)propyl)pyridin-3-yl)acrylate]",≤ 0.016,≤ 0.5,–
"OC(Cn1cnnn1)(c1ccc(F)cc1F)C(F)(F)c1ccc(/C=C/COCC(F)(F)F)cn1 (stereo not drawn) [Compound 6, (E)-2-(2,4-Difluorophenyl)-1,1-difluoro-3-(1H-tetrazol-1-yl)-1-(5-(3-(2,2,2-trifluoroethoxy)prop-1-en-1-yl)pyridin-2-yl)propan-2-ol]",≤ 0.016,≤ 0.5,< 40
"OC(Cn1cnnn1)(c1ccc(F)cc1F)C(F)(F)c1ccc(-c2ccc(Cl)nc2)cn1 (stereo not drawn) [Compound 30, 1-(6′-Chloro-[3,3′-bipyridin]-6-yl)-2-(2,4-difluorophenyl)-1,1-difluoro-3-(1H-tetrazol-1-yl)propan-2-ol]",0.062,–,80 to 100
"N#Cc1ccc(OCc2ccc(C(F)(F)C(O)(Cn3cnnn3)c3ccc(F)cc3F)nc2)cc1 (stereo not drawn) [Compound 79, 4-((6-(2-(2,4-Difluorophenyl)-1,1-difluoro-2-hydroxy-3-(1H-tetrazol-1-yl)propyl)pyridin-3-yl)methoxy)benzonitrile]",–,≤ 0.5,80 to 100
"OC(Cc1cnco1)(c1ccc(F)cc1F)C(F)(F)c1ccc(Br)cn1 (stereo not drawn) [Compound 83, 1-(5-Bromopyridin-2-yl)-2-(2,4-difluorophenyl)-1,1-difluoro-3-(oxazol-5-yl)propan-2-ol]",–,≤ 0.5,80 to 100
"N#Cc1ccc(OCc2ccc(C(F)(F)C(O)(Cn3cnnn3)c3ccc(F)cc3F)nc2)c(F)c1 (stereo not drawn) [Compound 88, 4-((6-(2-(2,4-difluorophenyl)-1,1-difluoro-2-hydroxy-3-(1H-tetrazol-1-yl)propyl)pyridin-3-yl)methoxy)-3-fluorobenzonitrile]",–,≤ 0.5,80 to 100
"N#Cc1cccc(OCc2ccc(C(F)(F)C(O)(Cn3cnnn3)c3ccc(F)cc3F)nc2)c1F (stereo not drawn) [Compound 89, 3-((6-(2-(2,4-difluorophenyl)-1,1-difluoro-2-hydroxy-3-(1H-tetrazol-1-yl)propyl)pyridin-3-yl)methoxy)-2-fluorobenzonitrile]",–,≤ 0.5,80 to 100
"N#Cc1ccc(SCc2ccc(C(F)(F)C(O)(Cn3cnnn3)c3ccc(F)cc3F)nc2)c(F)c1 (stereo not drawn) [Compound 90, 4-(((6-(2-(2,4-difluorophenyl)-1,1-difluoro-2-hydroxy-3-(1H-tetrazol-1-yl)propyl)pyridin-3-yl)methyl)thio)-3-fluorobenzonitrile]",–,1.5,40 to 59
"OC(Cn1cnnn1)(c1ccc(F)cc1F)C(F)(F)c1ccc(COC(F)F)cn1 (stereo not drawn) [Compound 92, 1-(5-((difluoromethoxy)methyl)pyridin-2-yl)-2-(2,4-difluorophenyl)-1,1-difluoro-3-(1H-tetrazol-1-yl)propan-2-ol]",–,≤ 0.5,80 to 100

# Further lines, with some results ahead:
MIC (C. albicans) [µg/mL],MIC [1] [µg/mL],SMILES,pest or weed control at 50 ppm [2] [%]
–,≤ 0.5,"OC(Cn1cnnn1)(c1ccc(F)cc1F)C(F)(F)c1ccc(-c2ccc(Cl)cn2)cn1 (stereo not drawn) [Compound 93, 1-(5-chloro-[2,3′-bipyridin]-6′-yl)-2-(2,4-difluorophenyl)-1,1-difluoro-3-(1H-tetrazol-1-yl)propan-2-ol]",80 to 100
–,≤ 0.5,"OC(Cn1cnnn1)(c1ccc(F)cc1F)C(F)(F)c1ccc(-c2ccc(C(F)(F)F)cn2)cn1 (stereo not drawn) [Compound 94, 2-(2,4-difluorophenyl)-1,1-difluoro-3-(1H-tetrazol-1-yl)-1-(5-(trifluoromethyl)-[2,3′-bipyridin]-6′-yl)propan-2-ol]",80 to 100
–,1.5 to 4,"N#Cc1ccc(-c2ccc(C(F)(F)C(O)(Cn3cnnn3)c3ccc(F)cc3F)nc2)nc1 (stereo not drawn) [Compound 95, 6′-(2-(2,4-difluorophenyl)-1,1-difluoro-2-hydroxy-3-(1H-tetrazol-1-yl)propyl)-[2,3′-bipyridine]-5-carbonitrile]",80 to 100
–,1.5 to 4,"OC(Cn1cnnn1)(c1ccc(F)cc1F)C(F)(F)c1ccc(-c2ccncc2)cn1 (stereo not drawn) [Compound 96, 1-([3,4′-bipyridin]-6-yl)-2-(2,4-difluorophenyl)-1,1-difluoro-3-(1H-tetrazol-1-yl)propan-2-ol]",60 to 79
–,≤ 0.5,"N#Cc1ccc(OCc2ccc(C(F)(F)C(O)(Cn3cnnn3)c3ccc(F)cc3F)nc2)nc1 (stereo not drawn) [Compound 98, 6-((6-(2-(2,4-difluorophenyl)-1,1-difluoro-2-hydroxy-3-(1H-tetrazol-1-yl)propyl)pyridin-3-yl)methoxy)nicotinonitrile]",80 to 100
–,≤ 0.5,"OC(Cn1cnnn1)(c1ccc(F)cc1F)C(F)(F)c1ccc(COc2ccc(C(F)(F)F)cn2)cn1 (stereo not drawn) [Compound 99, 2-(2,4-difluorophenyl)-1,1-difluoro-3-(1H-tetrazol-1-yl)-1-(5-(((5-(trifluoromethyl)pyridin-2-yl)oxy)methyl)pyridin-2-yl)propan-2-ol]",80 to 100
–,≤ 0.5,OC(Cn1cnnn1)(c1ccc(F)cc1F)C(F)(F)c1ccc(COc2ncc(C(F)(F)F)cc2Cl)cn1 (stereo not drawn) [Compound 100],80 to 100
–,1.5 to 4,"OC(Cn1cnnn1)(c1ccc(F)cc1F)C(F)(F)c1ccc(C(F)(F)c2ccc(F)cc2)cn1 (stereo not drawn) [Compound 101, 1-(5-(difluoro(4-fluorophenyl)methyl)pyridin-2-yl)-2-(2,4-difluorophenyl)-1,1-difluoro-3-(1H-tetrazol-1-yl)propan-2-ol]",80 to 100
–,1.5 to 4,"OC(Cn1cnnn1)(c1ccc(F)cc1F)C(F)(F)c1ccc(C(F)(F)c2ccc(C(F)(F)F)cc2)cn1 (stereo not drawn) [Compound 102, 1-(5-(difluoro(4-(trifluoromethyl)phenyl)methyl)pyridin-2-yl)-2-(2,4-difluorophenyl)-1,1-difluoro-3-(1H-tetrazol-1-yl)propan-2-ol]",80 to 100
–,1.5 to 4,"N#Cc1ccc(C(F)(F)c2ccc(C(F)(F)C(O)(Cn3cnnn3)c3ccc(F)cc3F)nc2)cc1 (stereo not drawn) [Compound 103, 4-((6-(2-(2,4-difluorophenyl)-1,1-difluoro-2-hydroxy-3-(1H-tetrazol-1-yl)propyl)pyridin-3-yl)difluoromethyl)benzonitrile]",80 to 100
